Measurements from US7435551B2, “Method for diagnosing type II diabetes or monitoring therapeutic effects of therapeutic agents for type II diabetes” (Fujirebio, Inc., priority 2001, dated 2008).

What was measured:
Assay type in all cases: in vivo, human
[1] = Three-month pioglitazone administration to type II diabetes patients: fasting glucose, HbA1c, lipids, uric acid
Text: (§1) 10 male patients with type II diabetes (ages: 40 to 66, 57.7±7.4) either being only under diet therapy (n=7) or being under diet therapy and on medication of sulfonylurea (n=3) were subjected to inspection regarding the following parameters before and after a three-month administration of a thiazolidine derivative, pioglitazone. Body weights, blood glucose levels, and blood pressure levels of those patients and treatments for them were at constant levels for at least 3 months before the examination. The sulfonylurea doses for 3 patients were at constant levels during that period. Pioglitazone was administered to all 10 patients after breakfast every day (orally, 30 mg/day).
(§2) The systolic blood pressure (SBP) and the diastolic blood pressure (DBP) were measured twice in a sitting position after an at least 5-minute recess. Body heights, weights, and levels of fasting plasma glucose (FPG), HbA1C, serum insulin, adiponectin, total cholesterol (TC), triglyceride (TG), HDL-cholesterol, LDL-cholesterol, and uric acid were measured in the morning after an overnight fast. Levels of plasma glucose, lipids, and uric acid were measured by a common automated measuring technique. The serum concentration of insulin was measured using a commercially available kit, EIA (Tosoh, Tokyo), as already described (Kawai, T. et al., Metabolism 48: 1102-1107, 1999; Hirose, H. et al., Clin. Sci. (Colch) 94: 633-636, 1998; Hirose, H. et al., J. Hypertens. 16: 2007-2012, 1998; Hirose, H. et al., Clin. Sci. (Colch) 100: 145-150, 2001). The insulin resistance index was evaluated by the Homeostasis model assessment (HOMA-IR) (Matthews, D. R. et al., Diabetologia 28: 412-419, 1985; Rudenski, A. S. et al., Metabolism 40: 908-917, 1991).

[2] = Three-month pioglitazone administration to type II diabetes patients: body mass index and blood pressure; settings: type II diabetes patients n=10, 30 mg/day orally, mean ± S.D.
Text: as §1, §2

adiponectin (GBP28) = assay: Serum GBP28 (adiponectin) by ELISA before and after three-month pioglitazone
Method: The patients who had been employed in Example 1 were also subjected to an assay of the blood concentration of GBP28 before and after the three-month administration of pioglitazone.
The anti-human GBP28 monoclonal antibody was prepared in the following manner. First, a solution of GBP28 (about 50 μg) isolated and purified from human serum was micellized with a complete adjuvant, and the resultant was administered to a mouse intraperitoneally. Two weeks later, the mouse was subjected to booster, the spleen was extirpated 3 days thereafter, and the B-cell was collected. The B-cell and the myeloma cell were allowed to fuse with each other to prepare hybridomas, and a hybridoma of interest was administered to a mouse intraperitoneally. Thereafter (20 days later), ascites was processed with DEAE-Sepharose Fast Flow, and the monoclonal antibody of interest was obtained.
GBP28 was assayed by ELISA in the following manner. A standard GBP28 sample, a 441-fold-diluted unknown sample, and a control sample (100 μl each) were added to a 96-well microtiter plate coated with the mouse anti-GBP28 monoclonal antibody. The plate was incubated for 60 minutes, the well was washed, and incubation was carried out for additional 30 minutes with the horseradish peroxidase-labeled mouse anti-GBP28 monoclonal antibody. The plate was washed again, and incubation was carried out for 30 minutes with a tetramethylbenzidine reagent. Subsequently, 100 μl of aqueous solution of 0.36N sulfuric acid was added to each well to terminate the reaction, and the absorbance at 450 nm was assayed. Intra- and interassay coefficients were 4.8% to 4.9% and 3.3% to 6.8%, respectively.

[3] = Three-month pioglitazone administration to type II diabetes patients: serum insulin (EIA) and HOMA-IR
Text: as §1, §2

[4] = Assessment of body fat distribution by CT scan before and after three-month pioglitazone; settings: type II diabetes patients n=10, 30 mg/day orally, mean ± S.D.
Method: The patients who had been also employed in Example 1 were subjected to the assessment of body fat distribution before and after the three-month administration of pioglitazone. Distributions of subcutaneous fat and visceral fat were determined by assessing the region of a Hounsfield unit of −150 to −50 by a method modified from the computerized tomography (CT) scan at the level of the navel by Tokunaga et al. (Tokunaga, K. et al., Int. J. Obes. 7: 437-445, 1983). CT images at the baseline and after a three-month treatment were taken in accordance with the same protocols that had been previously reported by the present inventors (Kawai, T. et al., Metabolism, 48: 1102-1107, 1999). The V/S ratio was calculated by dividing the visceral fat area (VFA) by the subcutaneous fat area (SFA).

[5] = type II diabetes patients n=10, 30 mg/day orally, 3 months, mean ± S.D.
[6] = type II diabetes patients n=10, 30 mg/day orally, logarithmic values, mean ± S.D.
[7] = type II diabetes patients n=10, 30 mg/day orally, mean ± S.D.
[8] = type II diabetes patients, three-month administration, given without sign

## CCc1ccc(CCOc2ccc(CC3SC(=O)NC3=O)cc2)nc1 (stereo not drawn) [pioglitazone]
[1]; [5]
  Fasting blood glucose, after the three-month trace: 7.0 ± 1.0^ mmol/l
  HDL cholesterol, after the three-month trace: 52.1 ± 7.3 mg/dL
  HbA1c, after the three-month trace: 6.1 ± 0.6^ %
  LDL cholesterol, after the three-month trace: 138 ± 24 mg/dL
  Total cholesterol, after the three-month trace: 218 ± 35 mg/dL
  Triglyceride (log), after the three-month trace: 127 ± 2 mg/dl
  Uric acid, after the three-month trace: 5.6 ± 1.3^ mg/dl
[1]; [6]
  Triglyceride (log), rate of change in 3 months: −1.0 ± 6.3
[1]; [7]
  Fasting blood glucose, rate of change in 3 months: −18.2 ± 9.3
  HDL cholesterol, rate of change in 3 months: 2.0 ± 11.2
  HbA1c, rate of change in 3 months: −9.0 ± 8.8
  LDL cholesterol, rate of change in 3 months: 12.3 ± 12.8
  Total cholesterol, rate of change in 3 months: 4.8 ± 10.9
  Uric acid, rate of change in 3 months: −5.0 ± 9.5
[1]; [8]
  Rate of change of HbA1C over three months: 9.0%
  Rate of change of blood glucose over three months: 18.2%
[2]; 3 months
  Body Mass Index, after the three-month trace: 27.0 ± 3.5 kg/m^2
[2]
  Body Mass Index, rate of change in 3 months: 2.1 ± 2.2
  Body mass index at diastolic blood pressure, rate of change in 3 months: −6.3 ± 6.9
  Body mass index at systolic blood pressure, rate of change in 3 months: −7.0 ± 4.9
Adiponectin (GBP28); 10 type II diabetes patients, three-month administration
  Elevation in serum adiponectin level, times higher than the baselines on average: 3 times
Adiponectin (GBP28); type II diabetes patients n=10, 30 mg/day orally, 3 months, serum, mean ± S.D.
  GBP28 (log), after the three-month trace: 14.4 ± 2.1 μg/l
Adiponectin (GBP28); [6]
  GBP28 (log), rate of change in 3 months: 80.9 ± 58^
Adiponectin (GBP28); type II diabetes patients, three-month administration
  Rate of change of concentration of GBP28 over three months: 80.9%
[3]; [5]
  HOMA-IR (log), after the three-month trace: 1.6 ± 1.3^
  Serum insulin (log), after the three-month trace: 30 ± 8 pmmol/l
[3]; [6]
  HOMA-IR (log), rate of change in 3 months: −62.6 ± 22.6
  Serum insulin (log), rate of change in 3 months: −23.7 ± 13.5
[3]; [8]
  Rate of change of HOMA-IR over three months: 62.6%
  Rate of change of serum insulin over three months: 23.7%
[4]; 3 months, CT at navel level
  Subcutaneous Fat Area, after the three-month trace: 179 ± 81 cm^2
  Visceral Fat Area, after the three-month trace: 180 ± 46 cm^2
[4]; 3 months, VFA divided by SFA
  V/S ratio, after the three-month trace: 1.1 ± 0.3
[4]
  Subcutaneous Fat Area, rate of changes in 3 months: 16.1 ± 18.7
  V/S ratio, rate of changes in 3 months: −4.0 ± 11.2
  Visceral Fat Area, rate of changes in 3 months: 11.3 ± 21.3
